Test results from patent US8008088B2, “SMMR (small molecule metabolite reporters) for use as in vivo glucose biosensors” (Masimo Laboratories, Inc., priority 2003, dated 2011).
Like-named read-outs stand apart in the source and are kept apart here.

Legend:
[1] = Glucose response rate in stirred cuvette, pH 8 phosphate buffer; settings: 100 μL of 300 mg/dL glucose added; monitored every 15 seconds; ex 340 nm, em 440 nm
Procedure: Arg-327 unprotected batches were prepared. One batch was supplied as a yellow powder and the other as a concentrated solution in deuterated methanol. A small sample of these materials was taken and dissolved in 3 ml of pH 8 phosphate buffer. The fluorescence of these materials was excited at 340 nm and the emission monitored at 440 nm. The fluorescence was monitored every 15 seconds in a stirred cuvette. After about 3 minutes 100 μL of 300 mg/dL glucose in pH 8 buffer was added. […] Similar results were obtained for both samples.

[2] = system: PHK cells; experiment: In-vitro detection in PHK cells loaded with reporter, two-photon fluorescent imaging; type: cell-based; settings: reporter 50 micromolar; glucose increased to 300 mg/dl; EM 440 nm, excitation (2P) 705 nm
Procedure: PHK cells were loaded with AF-327d reporter, at 50 micromolar concentration, in buffer. Fluorescence was measured using a two-photon fluorescent imaging system at approximately EM 440 nm, and excitation at (2P) 705 nm. Pictures taken 10 minutes apart show a slight change in fluorescence intensity upon increasing the glucose concentration to 300 mg/dl in the cell buffer medium. This is seen clearly, as a 20% decrease in time course of fluorescence.

[3] = Fluorescence and absorption response of boronic acid reporters to glucose in buffer solution (in vitro); settings: for rise in fluorescence intensity on addition of glucose: glucose changed from zero to 300 mg/dL
[4] = pH dependency of esculetin spectra (pKa determination); type: physicochemical
Source text: The intensity of the fluorescence varies with pH but not the emission wavelength. The absorption spectrum did change with pH, implying the molecule could be used ratiometrically to measure pH using one monitoring wavelength and two excitation wavelengths. The relevant spectra are shown here together with a plot of absorption ratio as a function of pH (FIG. 45).

[5] = Absorption and emission spectra of fluorescein and BeXan (Table 4); type: physicochemical
Source text: The configuration of the dye is strongly influenced by the nature of the heteroatom substitution. The structure of the dye responsible for the absorption may be estimated by consideration of the photophysical properties of related compounds and calculations on them. For example comparison of fluorescein and BeXan type dyes are shown in FIGS. 21a and 21b, with structures shown in Schemes 11 and 12, respectively.

[6] = hydroxyl group at position 3; cited from earlier work
[7] = protonated, first (high energy) band
[8] = protonated, second (low energy) band

O=C(Nc1ccc2c(C(F)(F)F)cc(=O)oc2c1)c1ccc(B(O)O)cc1 [AF-327d]
glucose response rate (fluorescence versus time) [1]: increased immediately | decrease in time course of fluorescence [2]: 20% | fluorescence emission (em) [3]: 440 nm | fluorescence excitation (ex) [3]: 340 nm | long wavelength absorption maximum [3]: 333 nm | response to glucose in vitro (in words) [3]: stronger response to glucose than other published compounds | change of absorption spectrum at the excitation wavelength ([3]; as a function of glucose concentration): less than 10% | rise in fluorescence intensity on addition of glucose [3]: 60% | Emission Wavelength ([3]; with and without added glucose at pH=7): 440 nm

O=C(Nc1ccc([N+](=O)[O-])cc1)c1ccc(B(O)O)cc1 [AF-339]
response to glucose in vitro (in words) [3]: weaker than AF-327

O=C(/C=C/c1ccc(B(O)O)cc1)c1cc2ccccc2oc1=O [AF-343]
response to glucose in vitro (in words) [3]: No fluorescence or glucose effect

O=C(Nc1ccc2oc(=O)c3ccccc3c2c1)c1ccc(B(O)O)cc1 [AF-345]
fluorescence emission (em) [3]: 435 nm | fluorescence excitation (ex) [3]: 330 nm | rise in fluorescence intensity on addition of glucose [3]: 30%

O=c1ccc2cc(O)c(O)cc2o1 [esculetin, 6,7 dihydroxycoumarin]
pKa [4]: 7.5

fluorescein
Difference in energy of protonated absorption bands [5]: 3.6 kcal/mol | Stokes shift for deprotonated bands [5]: 4.1 kcal/mol | Stokes shift for protonated bands [5]: 3.8 kcal/mol | Band position relative to the high-energy protonated absorption band, Absorption ([5]; Deprotonated band): 5.7 kcal/mol | Band position relative to the high-energy protonated absorption band, Emission ([5]; Deprotonated band): 9.8 kcal/mol | Band position relative to the high-energy protonated absorption band, Absorption ([5]; High energy protonated band): 0 kcal/mol | Band position relative to the high-energy protonated absorption band, Emission ([5]; High energy protonated band): 7.4 kcal/mol | Band position relative to the high-energy protonated absorption band, Absorption ([5]; Low energy protonated band): 3.6 kcal/mol | Band position relative to the high-energy protonated absorption band, Emission ([5]; Low energy protonated band): 9.9 kcal/mol | Absorption Energy ([5]; deprotonated): 57.1 kcal/mol | Absorption Wavelength ([5]; deprotonated): 501 nm | Emission Energy ([5]; deprotonated): 53 kcal/mol | Emission Wavelength ([5]; deprotonated): 540 nm | Absorption Energy [5, 7]: 62.8 kcal/mol | Absorption Wavelength [5, 7]: 455 nm | Emission Energy [5, 7]: 55.4 kcal/mol | Emission Wavelength [5, 7]: 516 nm | Absorption Energy [5, 8]: 59.2 kcal/mol | Absorption Wavelength [5, 8]: 483 nm | Emission Energy [5, 8]: 52.9 kcal/mol | Emission Wavelength [5, 8]: 541 nm | pKa [6]: 6.4
